Patent US20160343958A1, “ORGANIC TRANSISTOR, COMPOUND, ORGANIC SEMICONDUCTOR MATERIAL FOR NON-LIGHT-EMITTING ORGANIC SEMICONDUCTOR DEVICE, MATERIAL FOR ORGANIC TRANSISTOR, COATING SOLUTION FOR NON-LIGHT-EMITTING ORGANIC SEMICONDUCTOR DEVICE, AND ORGANIC SEMICONDUCTOR FILM FOR NON-LIGHT-EMITTING ORGANIC SEMICONDUCTOR DEVICE” (FUJIFILM Corporation, priority 2014, published 2016)

assay: Solubility in toluene; type: physicochemical; settings: 5-level grade A-E
Description: Each of the compounds of the present invention or comparative compounds (2% by mass, 1% by mass, 0.5% by mass, or 0.1% by mass each) was mixed with toluene (1 mL), heated to 100° C., and then left to stand for 30 minutes at room temperature. […] For practical use, the compound needs to be evaluated to be A, B, C, or D. The compound preferably needs to be evaluated to be A, B, or C, more preferably needs to be evaluated to be A or B, and particularly preferably needs to be evaluated to be A.
E: Precipitation occurred at 0.1% by mass.

SMILES	Solubility
CCCCCCCCc1ccc2sc3c(ccc4c5cc(CCCCCCCC)ccc5sc43)c2c1 [Compound example 396]	B (Precipitation did not occur at 1% by mass but occurred at 2% by mass.)
CCCc1ccc2c(c1)sc1c2ccc2c3ccc(CCC)cc3sc21 [Compound example 1]	B (Precipitation did not occur at 1% by mass but occurred at 2% by mass.)
CCCCCCCCCCCCCCCCCCc1ccc2c(c1)sc1c2ccc2c3ccc(CCCCCCCCCCCCCCCCCC)cc3sc21 [Compound example 16]	B (Precipitation did not occur at 1% by mass but occurred at 2% by mass.)
CCCCCCCCc1ccc(-c2ccc3c(c2)sc2c3ccc3c4ccc(-c5ccc(CCCCCCCC)cc5)cc4sc32)cc1 [Compound example 34]	B (Precipitation did not occur at 1% by mass but occurred at 2% by mass.)
CCCCCCCCc1ccc2c(c1)oc1c2ccc2c3ccc(CCCCCCCC)cc3oc21 [Compound example 416]	C (Precipitation did not occur at 0.5% by mass but occurred at 1% by mass.)
CCCCCCCCCCCCc1ccc2cc3c(cc2c1)sc1c3ccc2c3ccc(CCCCCCCCCCCC)cc3sc21 [Compound example 344]	B (Precipitation did not occur at 1% by mass but occurred at 2% by mass.)
CCCCCCCCc1ccc2c(c1)sc1c2ccc2c3ccc(CCCCCCCC)cc3sc21 [Compound example 6]	A (Precipitation did not occur at 2% by mass.)
C[Si](C)(C)C#Cc1c(C#C[Si](C)(C)C)c2c3ccc(-c4cccs4)cc3sc2c2sc3cc(-c4cccs4)ccc3c12 [Compound example 427]	D (Precipitation did not occur at 0.1% by mass but occurred at 0.5% by mass.)
CCCCCCCCOc1ccc2c(c1)sc1c2ccc2c3ccc(OCCCCCCCC)cc3sc21 [Compound example 326]	B (Precipitation did not occur at 1% by mass but occurred at 2% by mass.)
CCCCCCCCCCCCc1ccc(-c2ccc3c(c2)sc2c3ccc3c4ccccc4sc32)cc1 [Compound example 372]	B (Precipitation did not occur at 1% by mass but occurred at 2% by mass.)
CCCCCCCCc1ccc(-c2ccc3c(c2)sc2c3ccc3c4ccc(-c5ccc(CCCCCCCC)s5)cc4sc32)s1 [Compound example 62]	B (Precipitation did not occur at 1% by mass but occurred at 2% by mass.)
c1ccc2c(c1)sc1c2ccc2c3ccccc3sc21 [comparative compound 1, reference compound]	E (Precipitation occurred at 0.1% by mass.)
CCCCCCCCc1ccc2cc3c(cc2c1)sc1c3ccc2c3cc4ccc(CCCCCCCC)cc4cc3sc21 [Compound example 20]	B (Precipitation did not occur at 1% by mass but occurred at 2% by mass.)
CCCCCCCCCCCCc1ccc2c(c1)sc1c2ccc2c3ccccc3sc21 [Compound example 358]	B (Precipitation did not occur at 1% by mass but occurred at 2% by mass.)
CCCCCc1ccc2c(c1)sc1c2ccc2c3ccc(CCCCC)cc3sc21 [Compound example 3]	A (Precipitation did not occur at 2% by mass.)
Cc1ccc2c(c1)sc1c2ccc2c3ccc(C)cc3sc21 [comparative compound 2, reference compound]	E (Precipitation occurred at 0.1% by mass.)
CCCCCCCCCCCCc1ccc(-c2ccc3c(c2)sc2c3ccc3c4ccccc4sc32)s1 [Compound example 386]	B (Precipitation did not occur at 1% by mass but occurred at 2% by mass.)
CCCCCCCC/C=C/c1ccc2c(c1)sc1c2ccc2c3ccc(/C=C/CCCCCCCC)cc3sc21 [Compound example 298]	B (Precipitation did not occur at 1% by mass but occurred at 2% by mass.)
CCCCCCC#Cc1ccc2c(c1)sc1c2ccc2c3ccc(C#CCCCCCC)cc3sc21 [Compound example 310]	B (Precipitation did not occur at 1% by mass but occurred at 2% by mass.)
c1ccc2c(c1)sc1c2ccc2c3cccc(-c4ccc5c6ccccc6c6ccccc6c5c4)c3sc21 [comparative compound 6, reference compound]	E (Precipitation occurred at 0.1% by mass.)
c1ccc(-c2ccc3sc4c5sc6ccc(-c7ccccc7)cc6c5c(-c5ccccc5)c(-c5ccccc5)c4c3c2)cc1 [compound 4, reference compound]	E (Precipitation occurred at 0.1% by mass.)
CCCCCCCCCCCCc1ccc2cc3c(cc2c1)sc1c3ccc2c3cc4ccc(CCCCCCCCCCCC)cc4cc3sc21 [Compound example 24]	B (Precipitation did not occur at 1% by mass but occurred at 2% by mass.)
CCCCC(CC)Cc1ccc2c(c1)sc1c2ccc2c3ccc(CC(CC)CCCC)cc3sc21 (stereo not shown) [Compound example 407]	A (Precipitation did not occur at 2% by mass.)
c1ccc(-c2cccc(-c3ccc4sc5c(ccc6c7cc(-c8cccc(-c9ccccc9)c8)ccc7sc65)c4c3)c2)cc1 [compound 3, reference compound]	E (Precipitation occurred at 0.1% by mass.)
CCCCCCCCCCCCc1ccc2c(c1)sc1c2ccc2c3ccc(CCCCCCCCCCCC)cc3sc21 [Compound example 10]	A (Precipitation did not occur at 2% by mass.)
